# Data reported in patent US8748109B2, “Method for the detection of organ or tissue injury” (priority 2009, dated 2014).
# Residues, ends and D or L forms follow the SMILES beside them. *: point of attachment. Cbz = O=C(OCc1ccccc1)*; CH2F = FC*
# How the values were obtained:
# HMGB1 [1] = test: Total serum HMGB1 by ELISA; assay type: in vivo, mouse; details: for Serum Biomarker elevation Total HMGB1: APAP 530 mg/kg i.p., CD-1 mice
# [2] = test system: Total hepatic glutathione (GSH+GSSG); test: Determination of hepatic glutathione levels; assay type: in vivo, mouse; design: key to GSH depletion: (+) indicates significant; (−) non-significant hepatic GSH depletion compared to control animals; details: for GSH depletion: hepatic, APAP 530 mg/kg i.p., CD-1 mice
# Description: Total hepatic glutathione (GSH+GSSG) levels were determined as described previously (29).
# HMGB1 [3] = test: Serum hypo- and hyper-acetylated HMGB1 by LC-MS/MS (relative values); assay type: in vivo, mouse; details: APAP 530 mg/kg, mice, post dose, 0-24 hr time course
# Description: Overnight immunoprecipitations (IP) of serum K18 and HMGB1 (5 μg antibody and protein G separation) were subjected to SDS-PAGE. Protein bands were excised from Coomassie Blue-stained gels, destained by incubation with 50% acetonitrile/50 mM ammonium bicarbonate followed by vacuum drying. Gel pieces were rehydrated in 50 mM ammonium bicarbonate containing 40 ng/μL modified trypsin (K18) or GluC (HMGB1) and incubated for 16 hr at 37° C. Peptides were extracted by incubation with 2 changes of 60% acetonitrile/1% trifluoroacetic acid and the resulting supernatants were again dried. Extracts were desalted using C18 ZipTips according to the manufacturer's instructions and reconstituted in 5% acetonitrile/0.1% trifluoroacetic acid. For LC-MS/MS analysis, samples were delivered into a QSTAR Pulsar i hybrid mass spectrometer (Applied Biosystems) by automated in-line liquid chromatography (integrated LC-Packings System, 5 mm C18 nano-precolumn and 75 μm×15 cm C18 PepMap column (Dionex, Calif., USA) via a nano-electrospray source head and 10 μm inner diameter PicoTip (New Objective, USA). A gradient from 5% acetonitrile/0.05% trifluoroacetic acid (v/v) to 48% acetonitrile/0.05% trifluoroacetic acid (v/v) in 60 min was applied at a flow rate of […], MS and MS/MS spectra were acquired automatically in positive ion mode using information-dependent acquisition (Analyst, Applied Biosystems). Database searching was performed using Protein Pilot 2 (Applied Biosystems) with the latest version of the SwissProt database, with the confidence level set at 80%, and with biological modifications allowed. Quantification of murine serum full length K18 and caspase dependent K18 fragments was accomplished through construction of standard curves generated with synthetic peptide standards spiked into and could be recovered from control serum and compared to immunoassay (17). The full length K18 standard ([…]) was designed to span the caspase 3, 7, 9 cleavage site, whereas the abbreviated peptide ([…]) is only derived from K18 fragments with the caspase cleavage site cut (limit of detection; 300 fmol/ml. coefficient of variation; <10%). HMGB1 and its hyper-acetylated derivative were quantified by spectral counting of the peptide peak, since no synthetic standards were available, and are consequently presented only as relative values and compared to total levels determined by ELISA according to the manufacturer's instructions (limit of detection; 0.1 ng/ml. coefficient of variation; <10%).
# ALT = test: Serum alanine transaminase (ALT) activity; assay type: in vivo, mouse; details: for Serum Biomarker elevation ALT activity: APAP 530 mg/kg i.p., CD-1 mice
# caspase-3 = test: Caspase-3 western blotting of liver cytosol; assay type: in vivo, mouse; design: key to Caspase 3 processing (WB): (+) indicates positive detection of DNA laddering or processing of caspase-3 by western blot (WB); details: for Caspase 3 processing (WB): hepatic, APAP 530 mg/kg i.p., CD-1 mice
# Description: (§1) Caspase-3 western blotting was carried out as described previously (30) on mouse liver cytosol fractions prepared from snap frozen livers. DNA was isolated from snap frozen livers using the Sigma-Aldrich GeneElute kit according to the manufacturer's instructions. DNA laddering was visualised through ethidium bromide staining following separation on a 1% agarose gel. […] The number of cleaved caspase-3 positive cells (cytoplasmic staining) was evaluated semi-quantitatively (− no positive cells; + scattered positive cells; ++ moderate number of positive cells, +++ numerous positive cells).
# DNA laddering = test: Hepatic DNA laddering (agarose gel); assay type: in vivo, mouse; design: key: (+) indicates positive detection of DNA laddering or processing of caspase-3 by western blot (WB)
# Description: as §1
# HMGB-1 = test system: HMGB-1
# Description: (A) Schematic overview of the location of cysteine 106 within the cytokine domain of murine HMGB-1 which is characterized by MS/MS. […] MS/MS and western figures are representative of 6 mice per group.
# male CD-1 mice = test: Histological assessment of hepatotoxicity (H&E liver sections, hepatocyte loss score); details: APAP co-dosed with Z-VAD.fmk, 5 hr
# apoptotic markers = test: Effect of Z-VAD.fmk on APAP-induced apoptotic markers (DNA laddering, pro-caspase 3 processing, serum caspase cleaved K18); assay type: in vivo, mouse; details: Z-VAD.fmk 10 mg/kg i.v. 15 min pre-APAP (530 mg/kg; 5 hr), compared with APAP alone
# Description: as §1
# Overnight immunoprecipitations (IP) of serum K18 and HMGB1 (5 μg antibody and protein G separation) were subjected to SDS-PAGE. […] Quantification of murine serum full length K18 and caspase dependent K18 fragments was accomplished through construction of standard curves generated with synthetic peptide standards spiked into and could be recovered from control serum and compared to immunoassay (17). […] HMGB1 and its hyper-acetylated derivative were quantified by spectral counting of the peptide peak, since no synthetic standards were available, and are consequently presented only as relative values and compared to total levels determined by ELISA according to the manufacturer's instructions (limit of detection; 0.1 ng/ml. coefficient of variation; <10%).
# [4] = APAP 530 mg/kg, mice, 3-24 hr time course
# [5] = APAP 530 mg/kg, mice, 10 hr post treatment
smiles,measurement,setting,value
"CC(=O)Nc1ccc(O)cc1 [APAP, Acetaminophen]",Serum Biomarker elevation Total HMGB1,HMGB1 [1]; 3 hr,+
same,Serum Biomarker elevation Total HMGB1,HMGB1 [1]; 5 hr,+
same,Serum Biomarker elevation Total HMGB1,HMGB1 [1]; 10 hr,+
same,Serum Biomarker elevation Total HMGB1,HMGB1 [1]; 15 hr,+
same,Serum Biomarker elevation Total HMGB1,HMGB1 [1]; 20 hr,−
same,Serum Biomarker elevation Total HMGB1,HMGB1 [1]; 24 hr,−
same,last time point with serum HMGB1 elevation,HMGB1 [1]; [4],≤ 15 h
same,GSH depletion,[2]; 3 hr,+
same,GSH depletion,[2]; 5 hr,+
same,GSH depletion,[2]; 10 hr,−
same,GSH depletion,[2]; 15 hr,−
same,GSH depletion,[2]; 20 hr,−
same,GSH depletion,[2]; 24 hr,−
same,time of first significant elevation of necrosis-associated (hypo-acetylated) serum HMGB1,HMGB1 [3],3 h
same,time of first significant increase of immune cell derived (hyper-acetylated) serum HMGB1,HMGB1 [3],5 h
same,time of peak of immune cell derived (hyper-acetylated) serum HMGB1,HMGB1 [3],15 h
same,time of return to control levels of immune cell derived (hyper-acetylated) serum HMGB1,HMGB1 [3],≤ 24 h
same,Serum Biomarker elevation ALT activity,ALT; 3 hr,+
same,Serum Biomarker elevation ALT activity,ALT; 5 hr,+
same,Serum Biomarker elevation ALT activity,ALT; 10 hr,+
same,Serum Biomarker elevation ALT activity,ALT; 15 hr,+
same,Serum Biomarker elevation ALT activity,ALT; 20 hr,+
same,Serum Biomarker elevation ALT activity,ALT; 24 hr,+
same,"increased serum ALT activity, time course",ALT; [4],observed over the entire time course
same,caspase 3 processing,caspase-3; [5],no evidence
same,Caspase 3 processing (WB),caspase-3; 3 hr,+
same,Caspase 3 processing (WB),caspase-3; 5 hr,+
same,Caspase 3 processing (WB),caspase-3; 10 hr,+
same,DNA laddering,DNA laddering; [5],no evidence
same,DNA laddering,"DNA laddering; hepatic, APAP 530 mg/kg i.p., CD-1 mice, 3 hr",+
same,DNA laddering,"DNA laddering; hepatic, APAP 530 mg/kg i.p., CD-1 mice, 5 hr",+
same,serum molecular form of HMGB-1 present,HMGB-1; fasted mice dosed with APAP (530 mg/kg; 5 h),the only serum molecular form of HMGB-1 present was the reduced form
same,predominant form of HMGB-1 in sera,HMGB-1; fed mice dosed with APAP (530 mg/kg; 5 h),"oxidized, immune-tolerant form"
same,toxicity,"HMGB-1; mouse, in vivo",displaying toxicity
COC(=O)C[C@H](NC(=O)[C@H](C)NC(=O)[C@@H](NC(=O)OCc1ccccc1)C(C)C)C(=O)CF [Z-VAD.fmk] (Cbz-Val-Ala-Asp(OMe)-CH2F),apoptotic hepatocyte death by histology and immunohistology for cleaved caspase-3,male CD-1 mice,no evidence
same,Histological scoring of centrilobular hepatocyte loss,"male CD-1 mice; score 0-5, higher than APAP alone (p<0.05)",2-3
same,effect on APAP-mediated GSH depletion,"[2]; Z-VAD.fmk pre-treatment, APAP 530 mg/kg, 5 hr",no effect
same,detection of apoptotic markers in APAP dosed mice,apoptotic markers,completely inhibited
same,serum ALT level compared with APAP alone,ALT; Z-VAD.fmk and APAP (530 mg/kg; 5 hr),increased
same,molecular form of HMGB1 detected,"HMGB-1; Z-VAD.fmk in APAP-treated, fed mice",only the reduced molecular form
